In article PMC3282769 (PLoS ONE, 2012):

Experiments:
[1] = target: T1, OTC (ornithine transcarbamylase) (Enterococcus faecalis, UniProt Q839Q5); experiment: citrulline production, approach to equilibrium; turnover only; assay type: biochemical; details: 10 mM ornithine, 10 mM carbamylphosphate, 0.1 M Tris-HCl pH 8.5, 37°C
T1 construct: gene arcB
T1 sequence (Q839Q5 1-339): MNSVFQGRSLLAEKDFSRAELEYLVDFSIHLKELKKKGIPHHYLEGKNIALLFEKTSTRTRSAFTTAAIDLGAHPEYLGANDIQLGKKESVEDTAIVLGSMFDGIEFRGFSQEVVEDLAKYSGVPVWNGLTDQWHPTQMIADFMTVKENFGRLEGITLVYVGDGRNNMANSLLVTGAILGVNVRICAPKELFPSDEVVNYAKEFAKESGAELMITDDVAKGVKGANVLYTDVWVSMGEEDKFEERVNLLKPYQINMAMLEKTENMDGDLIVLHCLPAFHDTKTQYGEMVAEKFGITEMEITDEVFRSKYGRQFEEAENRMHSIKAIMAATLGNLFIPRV

[2] = target: T2, truncated PTC (PTC lacking the C-terminal helix 13) (Enterococcus faecalis, UniProt Q837U7); experiment: X-ray crystal structure, […] Å; assay type: binding; details: bisubstrate analogue in active site; pH 7.5
T2 construct: gene ptcA

[3] = target: T3, PTC (putrescine transcarbamylase) (Enterococcus faecalis, UniProt Q837U7); experiment: X-ray crystal structure, […] Å; assay type: binding; details: bisubstrate analogue in active site; pH 5.5
T3 construct: gene ptcA

[4] = target: T3, PTC (putrescine transcarbamylase); experiment: X-ray crystal structure, […] Å; assay type: binding; details: bisubstrate analogue in active site; pH 5.5; remark: listed apart in the source
[5] = target: T3, PTC (putrescine transcarbamylase); experiment: inhibition of transcarbamylase activity, PAPU titration; assay type: biochemical; details: putrescine or ornithine as substrate (one common curve); bisubstrate analogue inhibitor

T3 sequence (Q837U7 whole entry): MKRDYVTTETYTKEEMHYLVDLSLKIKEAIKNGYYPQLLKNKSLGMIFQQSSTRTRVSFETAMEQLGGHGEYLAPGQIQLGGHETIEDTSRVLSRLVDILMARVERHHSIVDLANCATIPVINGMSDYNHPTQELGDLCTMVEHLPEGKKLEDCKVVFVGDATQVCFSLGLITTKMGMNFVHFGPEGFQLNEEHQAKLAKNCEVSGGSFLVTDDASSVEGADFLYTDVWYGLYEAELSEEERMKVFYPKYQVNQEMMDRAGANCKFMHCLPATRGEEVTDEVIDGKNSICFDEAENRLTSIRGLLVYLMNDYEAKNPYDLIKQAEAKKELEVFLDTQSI
T2 sequence (Q837U7 1-317): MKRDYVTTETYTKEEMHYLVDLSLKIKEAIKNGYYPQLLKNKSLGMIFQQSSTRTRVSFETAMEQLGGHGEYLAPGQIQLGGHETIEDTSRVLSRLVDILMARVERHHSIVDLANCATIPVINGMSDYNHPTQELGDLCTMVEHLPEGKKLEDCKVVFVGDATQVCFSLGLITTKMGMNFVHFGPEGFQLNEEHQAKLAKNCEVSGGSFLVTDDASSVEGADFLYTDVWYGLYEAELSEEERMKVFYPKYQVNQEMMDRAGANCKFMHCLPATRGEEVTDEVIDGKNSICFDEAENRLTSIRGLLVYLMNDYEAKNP

NCCC[C@H](N)C(=O)O [L-ornithine]
citrulline production, approach to equilibrium; turnover only [1]: carbamylation of ornithine (open symbols) using either OTC (squares) or PTC (triangles)

N[C@@H](CCCNC(=O)CP(=O)(O)O)C(=O)O [PALO, δ-N-(phosphonoacetyl)-L-ornithine]
X-ray crystal structure, 1.59 Å [2]: 4A8H, 4A8P and 4A8T for PTC-PAPU, PTC-PALO and truncated PTC-PALO, respectively
X-ray crystal structure, 2.0 Å [3]: 4A8H, 4A8P and 4A8T for PTC-PAPU, PTC-PALO and truncated PTC-PALO, respectively

NCCCCNC(=O)CP(=O)(O)O [PAPU, N-(phosphonoacetyl)-putrescine]
X-ray crystal structure, 2.5 Å [4]: 4A8H, 4A8P and 4A8T for PTC-PAPU, PTC-PALO and truncated PTC-PALO, respectively
% activity [5]: PAPU inhibited similarly the activities of PTC with putrescine and with ornithine
